Reference: patent publication US7812008B2, “9-substituted tetracyclines” (Wyeth LLC, priority 2005, dated 2010)
In brackets after ≈: the same amount, converted by molar mass. Where two headings read alike, the source gives them in different places.

Key:
[1] = system: E. coli GC1073 (tet(B)); experiment: MIC broth microdilution, E. coli GC1073 (tet(B)); format: cell-based; details: MHBII, 18-22 hours at 35° C.
Protocol: (§1) Methods for in Vitro Antibacterial Evaluation
(§2) The minimum inhibitory concentration (MIC)
(§3) Antimicrobial susceptibility testing. The in vitro activities of representative examples of antibiotics of the invention are determined by the broth microdilution method as recommended by the National Committee for Clinical Laboratory Standards (NCCLS) (1). Mueller-Hinton II broth (MHBII)(BBL Cockeysville, Md.) is the medium employed in the testing procedures. Microtiter plates containing serial dilutions of each antimicrobial agent are inoculated with each organism to yield the appropriate density (10^5 CFU/ml) in a 100 μl final volume. The plates are incubated for 18-22 hours at 35° C. in ambient air. […] NCCLS. 2000. Methods for Dilution Antimicrobial Susceptibility Tests for Bacteria That Grow Aerobically; Approved Standards: M7-A5, vol. 20. National Committe for Clinical Laboratory Standards, Wayne, Pa.

[2] = system: E. faecalis GC4555 (ATCC Control); experiment: MIC broth microdilution, E. faecalis GC4555 (ATCC Control); format: cell-based; details: MHBII, 18-22 hours at 35° C.
Protocol: as §1, §2, §3

[3] = system: E. faecalis GC2267 (tet(L) + (M) + (S)); experiment: MIC broth microdilution, E. faecalis GC2267 (tet(L) + (M) + (S)); format: cell-based; details: MHBII, 18-22 hours at 35° C.
Protocol: as §1, §2, §3

[4] = system: Staphylococcal aureus Smith M P; experiment: MIC reported in Table 2 beside the in vivo ED50; format: cell-based; details: Staphylococcus aureus, infecting strain S. aureus Smith MP
Protocol: Antimicrobial susceptibility testing. The in vitro activities of representative examples of antibiotics of the invention are determined by the broth microdilution method as recommended by the National Committee for Clinical Laboratory Standards (NCCLS) (1). Mueller-Hinton II broth (MHBII)(BBL Cockeysville, Md.) is the medium employed in the testing procedures. Microtiter plates containing serial dilutions of each antimicrobial agent are inoculated with each organism to yield the appropriate density (10^5 CFU/ml) in a 100 μl final volume. The plates are incubated for 18-22 hours at 35° C. in ambient air. […] NCCLS. 2000. Methods for Dilution Antimicrobial Susceptibility Tests for Bacteria That Grow Aerobically; Approved Standards: M7-A5, vol. 20. National Committe for Clinical Laboratory Standards, Wayne, Pa. In Vivo Antibacterial Evaluation: The therapeutic effects of representative examples of the invention are determined against acute lethal infection with Staphylococcal aureus Smith M P, Female mice, strain CD-1 (Charles River Laboratoties), ca. 20 grams, are challenged by an intraperitoneal injection of sufficient bacteria (suspended in broth or hog mucin) to kill non-treated controls within 24-28 hours. Antibacterial agents, contained in 0.5 ml of 0.2% aqueous agar, are administered subcutaneously or orally 30 minutes after injection. When an oral dosing schedule is used, animal are deprived of food for 5 hours before and 2 hours after injection. Five mice are treated at each dose level. The 7 day survival ratios from 3 separate tests are pooled for calculation of median effective dose (ED50).

[5] = system: E. faecalis GC2242 (Van-resistant); experiment: MIC broth microdilution, E. faecalis GC2242 (Van-resistant); format: cell-based; details: MHBII, 18-22 hours at 35° C.
Protocol: as §1, §2, §3

[6] = system: S. aureus GC1079 (tet(K)); experiment: MIC broth microdilution, S. aureus GC1079 (tet(K)); format: cell-based; details: MHBII, 18-22 hours at 35° C.
Protocol: as §1, §2, §3

[7] = system: Staphylococcal aureus Smith M P; experiment: In vivo antibacterial evaluation, acute lethal infection in mice; details: Mus musculus, iv, 168 h; single intraveneous dose; female CD-1 mice; 7 day survival ratios, 3 tests pooled; read-out: SIV* ED50
[8] = system: S. aureus GC1131 (Clinical); experiment: MIC broth microdilution, S. aureus GC1131 (Clinical); format: cell-based; details: MHBII, 18-22 hours at 35° C.
Protocol: as §1, §2, §3

[9] = system: E. coli GC2203 (ATCC Control); experiment: MIC broth microdilution, E. coli GC2203 (ATCC Control); format: cell-based; details: MHBII, 18-22 hours at 35° C.
Protocol: as §1, §2, §3

[10] = system: S. aureus GC2216 (ATCC Control); experiment: MIC broth microdilution, S. aureus GC2216 (ATCC Control); format: cell-based; details: MHBII, 18-22 hours at 35° C.
Protocol: as §1, §2, §3

[11] = system: E. coli GC4559 (parent GC4560); experiment: MIC broth microdilution, E. coli GC4559 (parent GC4560); format: cell-based; details: MHBII, 18-22 hours at 35° C.
Protocol: as §1, §2, §3

[12] = system: Staphylococcal aureus Smith M P; experiment: In vivo antibacterial evaluation, acute lethal infection in mice; details: Mus musculus; single oral dose 30 minutes after intraperitoneal challenge; female CD-1 mice; 7 day survival ratios, 3 tests pooled; read-out: SOD* ED50
Protocol: In Vivo Antibacterial Evaluation: The therapeutic effects of representative examples of the invention are determined against acute lethal infection with Staphylococcal aureus Smith M P, Female mice, strain CD-1 (Charles River Laboratoties), ca. 20 grams, are challenged by an intraperitoneal injection of sufficient bacteria (suspended in broth or hog mucin) to kill non-treated controls within 24-28 hours. Antibacterial agents, contained in 0.5 ml of 0.2% aqueous agar, are administered subcutaneously or orally 30 minutes after injection. When an oral dosing schedule is used, animal are deprived of food for 5 hours before and 2 hours after injection. Five mice are treated at each dose level. The 7 day survival ratios from 3 separate tests are pooled for calculation of median effective dose (ED50).

[13] = system: S. aureus GC6466 (tet(M)); experiment: MIC broth microdilution, S. aureus GC6466 (tet(M)); format: cell-based; details: MHBII, 18-22 hours at 35° C.
Protocol: as §1, §2, §3

[14] = system: M. catarrhalis* GC6907 (Clinical); experiment: MIC broth microdilution, M. catarrhalis GC6907 (Clinical); format: cell-based; details: 18-22 hours at 35° C.
Protocol: as §1, §2, §3

[15] = system: S. aureus GC6467 (tet(M) + (K)); experiment: MIC broth microdilution, S. aureus GC6467 (tet(M) + (K)); format: cell-based; details: MHBII, 18-22 hours at 35° C.
Protocol: as §1, §2, §3

[16] = system: E. coli GC4560 (IMP mutant); experiment: MIC broth microdilution, E. coli GC4560 (IMP mutant); format: cell-based; details: MHBII, 18-22 hours at 35° C.
Protocol: as §1, §2, §3

[17] = system: H. influenzae<> GC6896 (ATCC Control); experiment: MIC broth microdilution, H. influenzae GC6896 (ATCC Control); format: cell-based; details: 18-22 hours at 35° C.
Protocol: as §1, §2, §3

[18] = system: S. pneumoniae* GC1894 (Clinical); experiment: MIC broth microdilution, S. pneumoniae GC1894 (Clinical); format: cell-based; details: 18-22 hours at 35° C.
Protocol: as §1, §2, §3

[19] = system: C. albicans GC3066 ATCC (Control); experiment: MIC broth microdilution, C. albicans GC3066 ATCC (Control); format: cell-based; details: 18-22 hours at 35° C.
Protocol: as §1, §2, §3

[20] = system: S. aureus GC4536 (Smith MP -In Vivo); experiment: MIC broth microdilution, S. aureus GC4536 (Smith MP -In Vivo); format: cell-based; details: MHBII, 18-22 hours at 35° C.
Protocol: as §1, §2, §3

[21] = system: S. pyogenes* GC4563 (Clinical); experiment: MIC broth microdilution, S. pyogenes GC4563 (Clinical); format: cell-based; details: 18-22 hours at 35° C.
Protocol: as §1, §2, §3

[22] = system: E. coli GC2270 (tet(M)); experiment: MIC broth microdilution, E. coli GC2270 (tet(M)); format: cell-based; details: MHBII, 18-22 hours at 35° C.
Protocol: as §1, §2, §3

[23] = system: S. pneumoniae* GC4465 (Clinical); experiment: MIC broth microdilution, S. pneumoniae GC4465 (Clinical); format: cell-based; details: 18-22 hours at 35° C.
Protocol: as §1, §2, §3

Row | Structure (SMILES) | minimum inhibitory concentration (MIC) [1] | minimum inhibitory concentration (MIC) [2] | minimum inhibitory concentration (MIC) [3] | MIC [4] [µg/mL] | minimum inhibitory concentration (MIC) [5] | minimum inhibitory concentration (MIC) [6] | ED50 [7] [mg/kg] | minimum inhibitory concentration (MIC) [8] | minimum inhibitory concentration (MIC) [9] | minimum inhibitory concentration (MIC) [10] | minimum inhibitory concentration (MIC) [11] | ED50 [12] [mg/kg] | minimum inhibitory concentration (MIC) [13] | minimum inhibitory concentration (MIC) [14] | minimum inhibitory concentration (MIC) [15] | minimum inhibitory concentration (MIC) [16] | minimum inhibitory concentration (MIC) [17] | minimum inhibitory concentration (MIC) [18] | minimum inhibitory concentration (MIC) [19] | minimum inhibitory concentration (MIC) [20] | other results
1 | CON(C)CC(=O)Nc1cc(N(C)C)c2c(c1O)C(=O)C1=C(O)[C@]3(O)C(=O)C(C(N)=O)=C(O)[C@@H](N(C)C)[C@@H]3C[C@@H]1C2 [Example 7, (4S,4aS,5aR,12aS)-4,7-bis(dimethylamino)-3,10,12,12a-tetrahydroxy-9-[(N-methoxy-N-methylglycyl)amino]-1,11-dioxo-1,4,4a,5,5a,6,11,12a-octahydrotetracene-2-carboxamide] | >64 | 1 | 8 | 2 (≈ 3.49 µM) | 2 | 32 | 0.5 to 2 | 4 | >64 | 2 | >64 | 16 to 32 | 2 | 0.50 | >64 | 1 | 4 | 0.50 | >64 | 2 | minimum inhibitory concentration (MIC) [21]: 0.25; minimum inhibitory concentration (MIC) [22]: >64; minimum inhibitory concentration (MIC) [23]: 0.50
2 | CN(C)c1cc(NC(=O)CN(O)C(C)(C)C)c(O)c2c1C[C@H]1C[C@H]3[C@H](N(C)C)C(O)=C(C(N)=O)C(=O)[C@@]3(O)C(O)=C1C2=O [Example 3, (4S,4aS,5aR,12aS)-9-{[N-(tert-butyl)-N-hydroxyglycyl]amino}-4,7-bis(dimethylamino)-3,10,12,12a-tetrahydroxy-1,11-dioxo-1,4,4a,5,5a,6,11,12a-octahydrotetracene-2-carboxamide] | >64 | 4 | 8 | 1 (≈ 1.66 µM) | 8 | 8 | 2 to 4 | 4 | 32 | 4 | >64 | > 32 | 4 | 2 | 16 | 1 | 8 | 1 | >64 | 4 | minimum inhibitory concentration (MIC) [21]: 0.50; minimum inhibitory concentration (MIC) [22]: >64; minimum inhibitory concentration (MIC) [23]: 1
3 | CC(C)N(O)CC(=O)Nc1cc(N(C)C)c2c(c1O)C(=O)C1=C(O)[C@]3(O)C(=O)C(C(N)=O)=C(O)[C@@H](N(C)C)[C@@H]3C[C@@H]1C2 [Example 2, (4S,4aS,5aR,12aS)-4,7-bis(dimethylamino)-3,10,12,12a-tetrahydroxy-9-[(N-hydroxy-N-isopropylglycyl)amino]-1,11-dioxo-1,4,4a,5,5a,6,11,12a-octahydrotetracene-2-carboxamide] | 16 | 1 | 4 | 1 (≈ 1.7 µM) | 2 | 8 | 0.25 to 0.5 | 4 | 2 | 2 | 8 | 18 | 4 | 1 | 16 | 0.25 | 2 | 0.25 | >64 | 4 | minimum inhibitory concentration (MIC) [21]: 0.25; minimum inhibitory concentration (MIC) [22]: 4; minimum inhibitory concentration (MIC) [23]: 0.25
4 | CN(C)c1cc(NC(=O)CN2CCCCO2)c(O)c2c1C[C@H]1C[C@H]3[C@H](N(C)C)C(O)=C(C(N)=O)C(=O)[C@@]3(O)C(O)=C1C2=O [Example 8, (4S,4aS,5aR,12aS)-4,7-bis(dimethylamino)-3,10,12,12a-tetrahydroxy-9-[(1,2-oxazinan-2-ylacetyl)amino]-1,11-dioxo-1,4,4a,5,5a,6,11,12a-octahydrotetracene-2-carboxamide] | >64 | 2 | 8 | 2 (≈ 3.34 µM) | 2 | 16 | 0.56 | 4 | >64 | 2 | >64 | 3.59 | 2 | 1 | 64 | 2 | 64 | 0.50 | >64 | 2 | minimum inhibitory concentration (MIC) [21]: 1; minimum inhibitory concentration (MIC) [22]: >64; minimum inhibitory concentration (MIC) [23]: 1
